Laboratory results published in patent US20130023645A1 (priority 2006, published 2013).
Where “and” joins values, the source holds several entries; their conditions need not be identical. Identical values can stand only once.

Molecular target: T1, neuronal-type nicotinic receptors (Bos taurus, UniProt Q07263+Q8SPU6)
T1 construct: monolayer cultures of bovine adrenal chromaffin cells; endogenous in cells; host or cells: bovine adrenal chromaffin cells (primary monolayer cultures)
Type: cell-based, bovine

T1 sequence (Q07263 22-495): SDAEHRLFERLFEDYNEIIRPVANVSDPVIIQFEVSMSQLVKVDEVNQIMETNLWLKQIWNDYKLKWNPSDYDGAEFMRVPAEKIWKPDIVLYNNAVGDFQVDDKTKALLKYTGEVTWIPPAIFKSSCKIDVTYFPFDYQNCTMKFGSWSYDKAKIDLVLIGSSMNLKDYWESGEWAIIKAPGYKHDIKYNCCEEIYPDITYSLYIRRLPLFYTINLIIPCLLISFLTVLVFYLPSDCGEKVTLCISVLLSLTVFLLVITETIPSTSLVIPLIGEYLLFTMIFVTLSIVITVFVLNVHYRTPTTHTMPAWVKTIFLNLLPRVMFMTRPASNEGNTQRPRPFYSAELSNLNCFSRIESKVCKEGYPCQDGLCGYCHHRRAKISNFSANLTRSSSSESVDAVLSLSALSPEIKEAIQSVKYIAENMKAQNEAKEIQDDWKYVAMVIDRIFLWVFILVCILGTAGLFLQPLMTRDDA
T1 sequence (Q8SPU6 20-496): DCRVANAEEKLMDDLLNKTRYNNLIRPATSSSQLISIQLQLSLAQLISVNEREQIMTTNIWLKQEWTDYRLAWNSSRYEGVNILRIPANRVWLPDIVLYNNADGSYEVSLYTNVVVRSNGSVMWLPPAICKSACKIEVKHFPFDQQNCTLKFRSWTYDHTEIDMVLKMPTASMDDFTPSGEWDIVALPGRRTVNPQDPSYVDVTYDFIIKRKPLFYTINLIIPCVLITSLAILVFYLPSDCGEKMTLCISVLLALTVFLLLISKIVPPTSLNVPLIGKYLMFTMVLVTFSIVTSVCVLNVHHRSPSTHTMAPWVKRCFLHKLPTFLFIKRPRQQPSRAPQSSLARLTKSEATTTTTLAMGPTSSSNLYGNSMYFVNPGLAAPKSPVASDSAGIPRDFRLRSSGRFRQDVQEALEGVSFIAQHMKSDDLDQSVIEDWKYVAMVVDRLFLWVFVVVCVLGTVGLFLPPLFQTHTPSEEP

## CN1CCCC1c1cccnc1 (centres unmarked) [NICOTINE, nicotine, reference compound]
  Adrenaline Release, mean: 4.46%
  Adrenaline Release, single determinations (1st-4th): 4.31% and 4.52% and 4.48%
  Noradrenaline Release, mean: 6.85%
  Noradrenaline Release, single determinations (1st-4th): 6.62% and 6.89% and 6.99%
  noradrenaline released, basal release (0.72%) subtracted: 6.13%
